Laboratory results published in US20190367516A1 (Bayer Pharma Aktiengesellschaft, priority 2015, published 2019).
Where two headings read alike, the source gives them in different places.

Molecular target: T1, human M2 receptor (Homo sapiens, UniProt P08172)
T1 sequence (P08172 1-466): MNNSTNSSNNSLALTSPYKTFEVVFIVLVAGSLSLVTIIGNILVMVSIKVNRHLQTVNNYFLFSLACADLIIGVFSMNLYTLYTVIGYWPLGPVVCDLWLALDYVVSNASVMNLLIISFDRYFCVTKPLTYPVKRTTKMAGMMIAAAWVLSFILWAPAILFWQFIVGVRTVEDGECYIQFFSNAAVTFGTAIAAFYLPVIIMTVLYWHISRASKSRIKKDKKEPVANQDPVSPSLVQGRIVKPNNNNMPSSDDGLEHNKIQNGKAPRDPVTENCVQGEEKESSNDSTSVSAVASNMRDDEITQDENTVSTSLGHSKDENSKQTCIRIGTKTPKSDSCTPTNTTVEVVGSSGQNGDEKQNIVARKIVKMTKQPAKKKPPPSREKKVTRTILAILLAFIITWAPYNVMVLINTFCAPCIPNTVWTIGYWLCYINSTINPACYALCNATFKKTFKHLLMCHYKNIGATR

[1] = Receptor activity EC50, allosteric potency at EC20 acetylcholine, M2-GIRK1/4 reporter cells, in some cases mean of two or more determinations
[2] = read-out: Efficiency, boosting of the acetylcholine effect at EC20 acetylcholine concentration, M2-GIRK1/4 reporter cells
[3] = Receptor activity EC50, M2-GIRK1/4 activation test, acetylcholine at EC20, allosteric potency, in some cases mean values from two or more determinations

EC50 [1] [nM] | Emax [2] [%] | EC50 [3] [nM] | SMILES | also measured
9 | 94 | – | C[C@H](NC(=O)c1cn(-c2c(F)cc(F)cc2Cl)c2nc(N3CC4CC4(O)C3)ccc2c1=O)C(F)(F)F (stereo partly drawn) [Example 408, 1-(2-Chloro-4,6-difluorophenyl)-7-[1-hydroxy-3-azabicyclo[3.1.0]hex-3-yl]-4-oxo-N-[(2S)-1,1,1-trifluoropropan-2-yl]-1,4-dihydro-1,8-naphthyridine-3-carboxamide] | –
20 | 100 | – | CC(C)(C)NC(=O)c1cn(-c2c(F)cc(F)cc2F)c2nc(N3C[C@@H](O)CC3=O)ccc2c1=O [Example 469, N-tert-Butyl-7-[(4S)-4-hydroxy-2-oxopyrrolidin-1-yl]-4-oxo-1-(2,4,6-trifluorophenyl)-1,4-dihydro-1,8-naphthyridine-3-carboxamide] | –
97 | 98 | – | CC1(NC(=O)c2cn(-c3c(F)cc(F)cc3F)c3nc(N4C[C@@H](O)[C@H](O)C4)ccc3c2=O)CC(F)(F)C1 [Example 655, N-(3,3-Difluoro-1-methylcyclobutyl)-7-[(3R,4R)-3,4-dihydroxypyrrolidin-1-yl]-4-oxo-1-(2,4,6-trifluorophenyl)-1,4-dihydro-1,8-naphthyridine-3-carboxamide] | –
– | – | 17 | CC(C)(C)[C@@H](NC(=O)c1cn(-c2c(F)cc(F)cc2F)c2nc(N3CCN(CCO)C3=O)ccc2c1=O)C(F)(F)F [Example 361, 7-[3-(2-Hydroxyethyl)-2-oxoimidazolidin-1-yl]-4-oxo-N-[(2R)-1,1,1-trifluoro-3,3-dimethylbutan-2-yl]-1-(2,4,6-trifluorophenyl)-1,4-dihydro-1,8-naphthyridine-3-carboxamide] | –
42 | 97.5 | – | O=C(N[C@@H](C1CC1)C(F)(F)F)c1cn(-c2c(F)cc(F)cc2F)c2nc(N3CC[C@H](O)C3=O)ccc2c1=O [Example 467, N-[(1 S)-1-Cyclopropyl-2,2,2-trifluoroethyl]-7-[(3S)-3-hydroxy-2-oxopyrrolidin-1-yl]-4-oxo-1-(2,4,6-trifluorophenyl)-1,4-dihydro-1,8-naphthyridine-3-carboxamide] | –
81 | 98 | – | O=C(N[C@@H](C1CC1)C(F)(F)F)c1cn(-c2c(F)cc(F)cc2F)c2nc(N3CC(CO)OC3=O)ccc2c1=O (mixture of isomers) [Example 659, N-[(1S)-1-Cyclopropyl-2,2,2-trifluoroethyl]-7-[5-(hydroxymethyl)-2-oxo-1,3-oxazolidin-3-yl]-4-oxo-1-(2,4,6-trifluorophenyl)-1,4-dihydro-1,8-naphthyridine-3-carboxamide] | –
– | – | 58 | O=C(NC1(C(F)(F)F)CC1)c1cn(-c2ccc(F)cc2F)c2nc(N3CC[C@H](F)C3)ccc2c1=O [Example 68, 1-(2,4-Difluorophenyl)-7-[(3S)-3-fluoropyrrolidin-1-yl]-4-oxo-N-[1-(trifluormethyl)cyclopropyl]-1,4-dihydro-1,8-naphthyridine-3-carboxamide] | –
67 | 89 | – | CC[C@H](NC(=O)c1cn(-c2c(F)cc(F)cc2F)c2nc(N3CCN(C)CC3)ccc2c1=O)C(F)(F)F [Example 496] | –
– | – | 100 | O=C(NC12CC(F)(C1)C2)c1cn(-c2c(F)cc(F)cc2F)c2nc(N3C[C@@H](O)CC3=O)ccc2c1=O [Example 367, N-(3-Fluorobicyclo[1.1.1]pent-1-yl)-7-[(4S)-4-hydroxy-2-oxopyrrolidin-1-yl]-4-oxo-1-(2,4,6-trifluorophenyl)-1,4-dihydro-1,8-naphthyridine-3-carboxamide] | –
– | – | 40 | CC(C)(CC(F)(F)F)NC(=O)c1cn(-c2c(F)cc(F)cc2F)c2nc(N3CCN(CCO)C3=O)ccc2c1=O [Example 375, 7-[3-(2-Hydroxyethyl)-2-oxoimidazolidin-1-yl]-4-oxo-N-(4,4,4-trifluoro-2-methylbutan-2-yl)-1-(2,4,6-trifluorophenyl)-1,4-dihydro-1,8-naphthyridine-3-carboxamide] | –

The remaining lines, values behind:

SMILES | EC50 [1] [nM] | Emax [2] [%] | EC50 [3] [nM] | also measured
CN(C)c1ccc2c(=O)c(C(=O)NCc3ccc(F)cc3F)cn(-c3ccc(F)cc3F)c2n1 [Example 50, N-(2,4-Dmuorobenzyl)-1-(2,4-difluorophenyl)-7-(dimethylamino)-4-oxo-1,4-dihydro-1,8-naphthyridine-3-carboxamide] | – | – | 158 | –
O=C(NC(c1c(F)cccc1F)C(F)(F)F)c1cn(-c2ccc(F)cc2F)c2nc(N3CCCC(O)C3=O)ccc2c1=O (single isomer, unassigned) [Example 248, 1-(2,4-Difluorophenyl)-N-[1-(2,6-difluorophenyl)-2,2,2-trifluoroethyl]-7-[3-hydroxy-2-oxopiperidin-1-yl]-4-oxo-1,4-dihydro-1,8-naphthyridine-3-carboxamide] | – | – | 330 | –
CC[C@@H](NC(=O)c1cn(-c2ccc(F)cc2F)c2nc(N3CC(O)C4(CC4)C3)ccc2c1=O)C(F)(F)F (stereo partly drawn) [Example 355, 1-(2,4-Difluorophenyl)-7-[7-hydroxy-5-azaspiro[2.4]hept-5-yl]-4-oxo-N-[(2R)-1,1,1-trifluorobutan-2-yl]-1,4-dihydro-1,8-naphthyridine-3-carboxamide] | – | – | 85 | –
CC[C@@H](NC(=O)c1cn(-c2ccc(F)cc2F)c2nc(N3C(=O)C(C)(C)C(O)C3C)ccc2c1=O)C(F)(F)F (stereo partly drawn) [Example 657, 1-(2,4-Difluorophenyl)-7-[4-hydroxy-3,3,5-trimethyl-2-oxopyrrolidin-1-yl]-4-oxo-N-[(2R)-1,1,1-trifluorobutan-2-yl]-1,4-dihydro-1,8-naphthyridine-3-carboxamide] | 100 | 85.3 | – | –
O=C(NCc1c(Cl)cccc1Cl)c1cn(-c2ccc(F)cc2F)c2nc(N3CC(O)CC3=O)ccc2c1=O (stereo not shown) [compound 183] | – | – | 166 | –
O=C(NC(c1c(F)cccc1F)C(F)(F)F)c1cn(-c2ccc(F)cc2F)c2nc(N3CC[C@@H](O)C3=O)ccc2c1=O (stereo partly drawn) [Example 300, 1-(2,4-Difluorophenyl)-N-[1-(2,6-difluorophenyl)-2,2,2-trifluoroethyl]-7-[(3R)-3-hydroxy-2-oxopyrrolidin-1-yl]-4-oxo-1,4-dihydro-1,8-naphthyridine-3-carboxamide] | – | – | 54 | –
O=C(N[C@@H](C1CC1)C(F)(F)F)c1cn(-c2c(F)cc(F)cc2F)c2nc(N3C[C@H](O)[C@@H](O)C3)ccc2c1=O [Example 642, N-[(1 S)-1-Cyclopropyl-2,2,2-trifluoroethyl]-7-[(3S,4S)-3,4-dihydroxypyrrolidin-1-yl]-4-oxo-1-(2,4,6-trifluorophenyl)-1,4-dihydro-1,8-naphthyridine-3-carboxamide] | 72 | – | – | Emax (read-out: Efficiency): 100%
CC(NC(=O)c1cn(-c2c(F)cc(F)cc2F)c2nc(N3C[C@@H](O)[C@H](O)C3)ccc2c1=O)(C1CC1)C(F)(F)F (stereo partly drawn) [Example 443, N-[2-Cyclopropyl-1,1-trifluoropropan-2-yl]-7-[(3R,4R)-3,4-dihydroxypyrrolidin-1-yl]-4-oxo-1-(2,4,6-trifluorophenyl)-1,4-dihydro-1,8-naphthyridine-3-carboxamide] | – | – | – | Efficiency (boosting of the acetylcholine effect at EC20 acetylcholine concentration, M2-GIRK1/4 reporter cells): 100.0%; EC50 (read-out: Receptor activity EC50, allosteric potency at EC20 acetylcholine, M2-GIRK1/4 reporter cells, in some cases mean of two or more determinations): 9 nM
O=C(NC12CC3CC(CC(C3)C1)C2)c1cn(-c2ccc(F)cc2F)c2nc(N3CCCS3(=O)=O)ccc2c1=O [Example 167] | – | – | 47 | –
CN(CC(F)F)c1ccc2c(=O)c(C(=O)NC34CC5CC(CC(C5)C3)C4)cn(-c3ccc(F)cc3F)c2n1 [Example 112, 7-[(2,2-Difluoroethyl)(methyl)amino]-1-(2,4-difluorophenyl)-4-oxo-N-(tricyclo[3.3.1.1^3,7]dec-1-yl)-1,4-dihydro-1,8-naphthyridine-3-carboxamide] | – | – | 29 | –
O=C(NC12CC3CC(CC(C3)C1)C2)c1cn(-c2ccc(F)cc2F)c2nc(N3CCC(O)(CO)CC3)ccc2c1=O [Example 116, 1-(2,4-Difluorophenyl)-7-[4-hydroxy-4-(hydroxymethyl)piperidin-1-yl]-4-oxo-N-(tricyclo[3.3.1.1^3,7]dec-1-yl)-1,4-dihydro-1,8-naphthyridine-3-carboxamide] | – | – | 59 | –
CC[C@@H](NC(=O)c1cn(-c2ccc(F)cc2F)c2nc(N3CCC4CC4(O)C3)ccc2c1=O)C(F)(F)F (stereo partly drawn) [Example 354, 1-(2,4-Difluorophenyl)-7-[1-hydroxy-3-azabicyclo[4.1.0]hept-3-yl]-4-oxo-N-[(2R)-1,1,1-trifluorobutan-2-yl]-1,4-dihydro-1,8-naphthyridine-3-carboxamide] | – | – | 38 | –
O=C(NC12CC3CC(CC(C3)C1)C2)c1cn(-c2ccc(F)cc2F)c2nc(N3CC[C@@H](F)C3)ccc2c1=O [Example 72, 1-(2,4-Difluorophenyl)-7-[(3R)-3-fluoropyrrolidin-1-yl]-4-oxo-N-(tricyclo[3.3.1.1^3,7]dec-1-yl)-1,4-dihydro-1,8-naphthyridine-3-carboxamide] | – | – | 53 | –
C[C@@H](COC(F)(F)F)NC(=O)c1cn(-c2c(F)cc(F)cc2Cl)c2nc(N3C[C@@H](O)CC3=O)ccc2c1=O [Example 421, 1-(2-Chloro-4,6-difluorophenyl)-7-[(4S)-4-hydroxy-2-oxopyrrolidin-1-yl]-4-oxo-N-[(2S)-1-(trifluoromethoxy)propan-2-yl]-1,4-dihydro-1,8-naphthyridine-3-carboxamide] | 48 | 100 | – | –
